# Ends that are not written are not given here.
# Legend:
# Candida albicans = system: Candida albicans
# Description: (§1) Minimal inhibitory concentration (MIC) determination. The MICs of the peptides were measured using a modified broth microdilution method in Mueller Hinton (MH) medium. Wu et al., J. Biol. Chem. 274: 29-35, 1999. Briefly, the peptides were dissolved and stored in glass vials. The assay was performed in sterile 96-well polypropylene microtitre plates were used. Serial dilutions of the peptides to be assayed were performed in 0.01% acetic acid (Fisher) containing 0.2% bovine serum albumin (Boehringer Mannheim GmbH) at 10× the desired final concentration. Ten microlitres of the 10× peptides were added to each well of a 96-well polypropylene plate containing 90 μl of MH media per well. Bacteria were added to the plate from an overnight culture at 2-7×10^5 colony forming units/ml and incubated over night at 37° C. The MIC was taken as the concentration at which no growth was observed.
# (§2) Strains. For the killing assay a mini-Tn5-lux mutant in Pseudomonas aeruginosa H103 was used. The strain is called H1001 and contains a fliC::luxCDABE transcriptional fusion resulting in constitutive expression of luciferase. The bacterial strains used for the antimicrobial activity assays included Escherichia coli UB1005 (F-, nalA37, metB1), a wild-type Salmonella enterica ssp. Typhimurium (S. Typhimurium), wild-type Pseudomonas aeruginosa PAO1 strain H103, Enterococcus faecalis ATCC29212, Staphylococcus aureus ATCC25923, and a clinical isolate of Staphylococcus epidermidis obtained from Dr. D. Speert (Department of Medicine, University of British Columbia). Antifungal activity was tested using a lab isolate of Candida albicans obtained from Dr. B. Dill (Department of Microbiology and Immunology, University of British Columbia).
# (§3) In addition, the parent peptide Bac2A was included in these studies as a standard. The minimal inhibitory concentrations (MIC) were determined for the important medical pathogens Pseudomonas aeruginosa, Escherichia coli, Salmonella typhimurium, Staphylococcus aureus, Staphylococcus epidermidis, Enterococcus faecaelis, and the yeast Candida albicans in Mueller-Hinton media.
# [1] = system: Enterococcus faecalis ATCC29212; conditions: ATCC29212
# Description: as §1, §2, §3
# [2] = system: Pseudomonas aeruginosa PAO1 strain H103; conditions: PAO1
# Description: as §1, §2, §3
# [3] = system: Salmonella enterica ssp. Typhimurium; conditions: ssp. Typhimurium
# Description: as §1, §2, §3
# [4] = system: Staphylococcus aureus ATCC25923; conditions: ATCC25923
# Description: as §1, §2, §3
# [5] = system: Staphylococcus epidermidis
# Description: as §1, §2, §3
# [6] = system: Pseudomonas aeruginosa strain H1001; experiment: Assay for the cleaved (free, soluble) peptides from cellulose support, luminescence killing assay; type: cell-based; design: key: 1: Peptides showing stronger killing than Bac2A at a 4 to 8-fold higher dilution; Peptides showing stronger killing compared to that of Bac2A at a 4-fold higher dilution; 3: Peptides similar to Bac2A; 4: Peptides similar to Bac2A at the highest concentration but demonstrating weaker killing at a 2-fold dilution; 5: Peptides giving very weak or no killing at a 2-fold dilution; 6: Peptides with weak killing activity at the highest concentration; conditions: free (cleaved) peptides, killing relative to Bac2A
# Outline: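 Cellulose-synthesized peptides (amidated C-terminus, two β-alanines) cleaved by ammonia, released from punched spots 30 min at 37 °C, then serially diluted. P. aeruginosa H1001 (constitutive fliC::luxCDABE) overnight culture diluted 1:500 in LB or 100 mM Tris pH 7.3/20 mM glucose. Killing followed as time-dependent luminescence loss at 37 °C.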
# [7] = system: Pseudomonas aeruginosa strain H1001 fliC::luxCDABE; experiment: Luminescence-based assay for the non-cleaved (bound) peptides on cellulose membranes; type: cell-based; conditions: for Luminescence at the given time in minutes: 0 / Luminescence at the given time in minutes: 20 / Luminescence at the given time in minutes: 40 / Luminescence at the given time in minutes: 60 / Luminescence at the given time in minutes: 80 / Luminescence at the given time in minutes: 100 / Luminescence at the given time in minutes: 120 / Luminescence at the given time in minutes: 180 / Luminescence at the given time in minutes: 240: cellulose-bound peptide; for Luminescence at the given time in minutes: 0: 0 min; for Luminescence at the given time in minutes: 20: 20 min; for Luminescence at the given time in minutes: 40: 40 min; for Luminescence at the given time in minutes: 60: 60 min; for Luminescence at the given time in minutes: 80: 80 min; for Luminescence at the given time in minutes: 100: 100 min; for Luminescence at the given time in minutes: 120: 120 min; for Luminescence at the given time in minutes: 180: 180 min; for Luminescence at the given time in minutes: 240: 240 min; for Activity Class bound: uncleaved cellulose-bound peptides
# Outline: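 Peptides remained bound to cellulose spots, which were ethanol-washed and equilibrated in 100 mM Tris pH 7.3. Constitutively lux-expressing P. aeruginosa (OD600 0.35 culture diluted 1:25) added in 10 mM Tris-HCl pH 7.3, 20 mM glucose at 37° C. Luminescence (RLU) followed over 14 time points; peptides binned into six activity classes.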
Substance,MIC C. albicans (Candida albicans),MIC E. faecalis [1],MIC P. aerug [2],MIC S. Typhim. [3],MIC S. aureus [4],MIC S. epi. [5],Activity Class Soluble [6],Luminescence at the given time in minutes: 0 [7],Luminescence at the given time in minutes: 20 [7],Luminescence at the given time in minutes: 40 [7],Luminescence at the given time in minutes: 60 [7],Luminescence at the given time in minutes: 80 [7],Luminescence at the given time in minutes: 100 [7],Luminescence at the given time in minutes: 120 [7],Luminescence at the given time in minutes: 180 [7],Luminescence at the given time in minutes: 240 [7],Activity Class bound [7],MIC P. aeruginosa [2]
RRARIVVIRVAR-NH2 (C-terminus assumed) [Bac233],8 µg/mL,16 µg/mL,8 µg/mL,8 µg/mL,16 µg/mL,2 µg/mL,–,–,–,–,–,–,–,–,–,–,–,–
RLARIVVIRVA-NH2 (C-terminus assumed) [Bac101],63 µg/mL,31 µg/mL,63 µg/mL,31 µg/mL,63 µg/mL,16 µg/mL,–,–,–,–,–,–,–,–,–,–,–,–
RLARRVVIRVAR-NH2 (C-terminus assumed) [Bac290],125 µg/mL,125 µg/mL,63 µg/mL,31 µg/mL,63 µg/mL,16 µg/mL,–,–,–,–,–,–,–,–,–,–,–,–
RLARQVVIRVAR-NH2 (C-terminus assumed) [Bac289],8 µg/mL,4 µg/mL,16 µg/mL,8 µg/mL,8 µg/mL,2 µg/mL,–,–,–,–,–,–,–,–,–,–,–,–
RLRRIVVIRVAR-NH2 (C-terminus assumed) [Bac252],16 µg/mL,8 µg/mL,8 µg/mL,8 µg/mL,8 µg/mL,2 µg/mL,–,–,–,–,–,–,–,–,–,–,–,–
RWWKIWVIRWWR-NH2 (C-terminus assumed) [Bac432],31 µg/mL,8 µg/mL,31 µg/mL,16 µg/mL,8 µg/mL,1 µg/mL,–,–,–,–,–,–,–,–,–,–,–,–
RRWVIWRR-NH2 (C-terminus assumed) [Bac437],63 µg/mL,32 µg/mL,250 µg/mL,31 µg/mL,16 µg/mL,8 µg/mL,–,–,–,–,–,–,–,–,–,–,–,–
RLARIVVIRVAG-NH2 (C-terminus assumed) [Bac415],63 µg/mL,31 µg/mL,63 µg/mL,63 µg/mL,63 µg/mL,31 µg/mL,–,–,–,–,–,–,–,–,–,–,–,–
RRWRIVVIRVRR-NH2 (C-terminus assumed) [Bac430],4 µg/mL,4 µg/mL,2 µg/mL,4 µg/mL,2 µg/mL,0.2 µg/mL,–,–,–,–,–,–,–,–,–,–,–,–
VRIRARRVILVA-NH2 (C-terminus assumed) [Bac006],–,–,–,–,28 µg/mL,–,1,3878 RLU,6829 RLU,4619 RLU,2393 RLU,867 RLU,469 RLU,277 RLU,286 RLU,306 RLU,3 (Peptides similar to Bac2A resulting in lux values of less than 500 after 240 min.),28 µg/mL
RIWVIWRR-NH2 (C-terminus assumed) [Bac436],8 µg/mL,2 µg/mL,8 µg/mL,8 µg/mL,2 µg/mL,2 µg/mL,–,–,–,–,–,–,–,–,–,–,–,–
KIWVIRWR-NH2 (C-terminus assumed) [Bac434],16 µg/mL,16 µg/mL,16 µg/mL,31 µg/mL,16 µg/mL,4 µg/mL,–,–,–,–,–,–,–,–,–,–,–,–
RGARIVVIRVAR-NH2 (C-terminus assumed) [Bac225],16 µg/mL,31 µg/mL,31 µg/mL,31 µg/mL,31 µg/mL,16 µg/mL,–,–,–,–,–,–,–,–,–,–,–,–
LARIVVIRVAR-NH2 (C-terminus assumed) [Bac102],83 µg/mL,46 µg/mL,83 µg/mL,>83 µg/mL,83 µg/mL,11 µg/mL,–,–,–,–,–,–,–,–,–,–,–,–
RLARIVVIRV-NH2 (C-terminus assumed) [Bac103],23 µg/mL,23 µg/mL,46 µg/mL,46 µg/mL,46 µg/mL,11 µg/mL,–,–,–,–,–,–,–,–,–,–,–,–
RLWRIVVIRVAR-NH2 (C-terminus assumed) [Bac256],8 µg/mL,2 µg/mL,8 µg/mL,8 µg/mL,2 µg/mL,0.5 µg/mL,–,–,–,–,–,–,–,–,–,–,–,–
RLRRIVVIRVRR-NH2 (C-terminus assumed) [Bac433],31 µg/mL,4 µg/mL,8 µg/mL,8 µg/mL,8 µg/mL,2 µg/mL,–,–,–,–,–,–,–,–,–,–,–,–
RLARIVKIRVAR-NH2 (C-terminus assumed) [Bac323],31 µg/mL,125 µg/mL,31 µg/mL,63 µg/mL,125 µg/mL,31 µg/mL,–,–,–,–,–,–,–,–,–,–,–,–
RLARIVVFRVAR-NH2 (C-terminus assumed) [Bac338],>250 µg/mL,>250 µg/mL,>250 µg/mL,>250 µg/mL,>250 µg/mL,>250 µg/mL,–,–,–,–,–,–,–,–,–,–,–,–
RIWVIRWR-NH2 (C-terminus assumed) [Bac435],16 µg/mL,8 µg/mL,16 µg/mL,16 µg/mL,4 µg/mL,4 µg/mL,–,–,–,–,–,–,–,–,–,–,–,–
RVLIVIRARRVA-NH2 (C-terminus assumed) [Bac043],–,–,–,–,23 µg/mL,–,1,5254 RLU,6385 RLU,3722 RLU,1189 RLU,313 RLU,159 RLU,67 RLU,84 RLU,52 RLU,3 (Peptides similar to Bac2A resulting in lux values of less than 500 after 240 min.),40 µg/mL
GLARIVVIRVAR-NH2 (C-terminus assumed) [Bac206],125 µg/mL,31 µg/mL,125 µg/mL,63 µg/mL,63 µg/mL,16 µg/mL,–,–,–,–,–,–,–,–,–,–,–,–
